Reference: patent US6472348B1, “Pyridone derivatives and herbicides” (Kumiai Chemical Industry Co., Ltd., priority 1996, dated 2002)
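For Herbicidal effects Mo in this document: grade of growth control; 5 = at least 90%; 4 = 70 to 90%; 3 = 50 to 70%; 2 = 30 to 50%; 1 = 10 to 30%; 0 = under 10%.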
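For Herbicidal effects Sc in this document: grade of growth control; 5 = at least 90%; 4 = 70 to 90%; 3 = 50 to 70%; 2 = 30 to 50%; 1 = 10 to 30%; 0 = under 10%.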
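For Phytotoxicity Tr in this document: grade of crop injury; 5 = at least 90%; 4 = 70 to 90%; 3 = 50 to 70%; 2 = 30 to 50%; 1 = 10 to 30%; 0 = under 10%.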

These compounds were tested on pale smartweed (Po) (assay: Test Example 9: crop plant selectivity by upland field foliage treatment (wheat), herbicidal effects). Conditions: dose 1.6 g ai/10a, 14th day after treatment.
Format: in vivo
Design: scale not given here
Outline: (§1)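 Read-out: weed control and wheat injury, rated by a defined scoring standard 14 days after foliar application.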
In the case of `C=CCN1C(=O)COc2ccc(-c3ccc(C(F)(F)F)n(C)c3=O)cc21` [2-31], the “Herbicidal effects Po” value was 5.

These compounds were tested on common lambsquarters (Ch) in the same assay as above. Conditions: dose 1.6 g ai/10a, 14th day after treatment.
Format: in vivo
Design: scale not given here
Outline: as §1
For `C=CCN1C(=O)COc2ccc(-c3ccc(C(F)(F)F)n(C)c3=O)cc21` [2-31], the “Herbicidal effects Ch” value was 5.

Each compound was assayed on China jute (Ab) in the same assay as above. Conditions: dose 1.6 g ai/10a, 14th day after treatment.
Format: in vivo
Design: scale not given here
Outline: as §1
For `C=CCN1C(=O)COc2ccc(-c3ccc(C(F)(F)F)n(C)c3=O)cc21` [2-31], the “Herbicidal effects Ab” value was 5.

These compounds were tested on slender amaranth (Am) in the same assay as above. Conditions: dose 1.6 g ai/10a, 14th day after treatment.
Format: in vivo
Design: scale not given here
Outline: as §1
For `C=CCN1C(=O)COc2ccc(-c3ccc(C(F)(F)F)n(C)c3=O)cc21` [2-31], the “Herbicidal effects Am” value was 5.

What follows are compounds tested on barnyardgrass (Ec) (assay: Test Example 1: herbicidal effects by paddy field soil treatment). Conditions: 100 g of the active ingredient per 10 ares, 21st day after the application, index 0-5 of Table 47.
Format: in vivo
Outline: (§2)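 Flooded paddy-soil pots (3 cm water) sown after puddling/leveling; treatment 100 g a.i./10 ares; greenhouse culture; herbicidal effect rated visually on a scoring scale at 21 d post-application.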
With `C=CCN1C(=O)COc2ccc(-c3ccc(C(F)(F)F)n(C)c3=O)cc21` [2-31] the “Herbicidal effects Ec” value was 5.

The compounds below were run on bulrush (Sc) in the same assay as above. Conditions: 100 g of the active ingredient per 10 ares, 21st day after the application, index 0-5 of Table 47.
Format: in vivo
Outline: as §2
With `C=CCN1C(=O)COc2ccc(-c3ccc(C(F)(F)F)n(C)c3=O)cc21` [2-31] the “Herbicidal effects Sc” value was 5.

The compounds below were run on monochoria (Mo) in the same assay as above. Conditions: 100 g of the active ingredient per 10 ares, 21st day after the application, index 0-5 of Table 47.
Format: in vivo
Outline: as §2
In the case of `C=CCN1C(=O)COc2ccc(-c3ccc(C(F)(F)F)n(C)c3=O)cc21` [2-31], the “Herbicidal effects Mo” value was 5.

The compounds below were run on barnyardgrass (Ec) (assay: Test Example 3: herbicidal effects by upland field foliage treatment). Conditions: 100 g active ingredient per 10 ares, evaluated 14th day after treatment.
Format: in vivo
Design: scale not given here
Outline: (§3)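 Scoring used a standard effect scale on the 14th day post-treatment, with plants held in a greenhouse throughout. Foliar application was made to weeds raised from seed in sand-filled pots for 2 weeks.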
`C=CCN1C(=O)COc2ccc(-c3ccc(C(F)(F)F)n(C)c3=O)cc21` [2-31] was tested, and the “Herbicidal effects Ec” value was 5.

Each compound was assayed on Diaitaria ciliaris (Di) in the same assay as above. Conditions: 100 g active ingredient per 10 ares, evaluated 14th day after treatment.
Format: in vivo
Design: scale not given here
Outline: as §3
For `C=CCN1C(=O)COc2ccc(-c3ccc(C(F)(F)F)n(C)c3=O)cc21` [2-31], the “Herbicidal effects Di” value was 5.

The compounds below were run on pale smartweed (Po) in the same assay as above. Conditions: 100 g active ingredient per 10 ares, evaluated 14th day after treatment.
Format: in vivo
Design: scale not given here
Outline: as §3
`C=CCN1C(=O)COc2ccc(-c3ccc(C(F)(F)F)n(C)c3=O)cc21` [2-31] was tested, and the “Herbicidal effects Po” value was 5.

The compounds below were run on common lambsquarters (Ch) in the same assay as above. Conditions: 100 g active ingredient per 10 ares, evaluated 14th day after treatment.
Format: in vivo
Design: scale not given here
Outline: as §3
With `C=CCN1C(=O)COc2ccc(-c3ccc(C(F)(F)F)n(C)c3=O)cc21` [2-31] the “Herbicidal effects Ch” value was 5.

The compounds below were run on rice flatsedge (Ci) in the same assay as above. Conditions: 100 g active ingredient per 10 ares, evaluated 14th day after treatment.
Format: in vivo
Design: scale not given here
Outline: as §3
For `C=CCN1C(=O)COc2ccc(-c3ccc(C(F)(F)F)n(C)c3=O)cc21` [2-31], the “Herbicidal effects Ci” value was 5.

The compounds below were run on slender amaranth (Am) in the same assay as above. Conditions: 100 g active ingredient per 10 ares, evaluated 14th day after treatment.
Format: in vivo
Design: scale not given here
Outline: as §3
For `C=CCN1C(=O)COc2ccc(-c3ccc(C(F)(F)F)n(C)c3=O)cc21` [2-31], the “Herbicidal effects Am” value was 5.

These compounds were tested on barnyardgrass (Ec) (assay: Test Example 2: herbicidal effects by upland field soil treatment). Conditions: 100 g of the active ingredient per 10 ares, evaluated on the 21st day after application.
Format: in vivo
Text: (§4) (Test on Herbicidal Effects by Upland Field Soil Treatment)
`C=CCN1C(=O)COc2ccc(-c3ccc(C(F)(F)F)n(C)c3=O)cc21` [2-31] was tested, and the “Herbicidal effects Ec” value was 5.

What follows are compounds tested on pale smartweed (Po) in the same assay as above. Conditions: 100 g of the active ingredient per 10 ares, evaluated on the 21st day after application.
Format: in vivo
Text: as §4
`C=CCN1C(=O)COc2ccc(-c3ccc(C(F)(F)F)n(C)c3=O)cc21` [2-31] was tested, and the “Herbicidal effects Po” value was 5.

Each compound was assayed on Digitaria ciliaris (Di) in the same assay as above. Conditions: 100 g of the active ingredient per 10 ares, evaluated on the 21st day after application.
Format: in vivo
Text: as §4
In the case of `C=CCN1C(=O)COc2ccc(-c3ccc(C(F)(F)F)n(C)c3=O)cc21` [2-31], the “Herbicidal effects Di” value was 5.

These compounds were tested on common lambsquarters (Ch) in the same assay as above. Conditions: 100 g of the active ingredient per 10 ares, evaluated on the 21st day after application.
Format: in vivo
Text: as §4
For `C=CCN1C(=O)COc2ccc(-c3ccc(C(F)(F)F)n(C)c3=O)cc21` [2-31], the “Herbicidal effects Ch” value was 5.

What follows are compounds tested on rice flatsedge (Ci) in the same assay as above. Conditions: 100 g of the active ingredient per 10 ares, evaluated on the 21st day after application.
Format: in vivo
Text: as §4
`C=CCN1C(=O)COc2ccc(-c3ccc(C(F)(F)F)n(C)c3=O)cc21` [2-31] was tested, and the “Herbicidal effects Ci” value was 5.

What follows are compounds tested on slender amaranth (Am) in the same assay as above. Conditions: 100 g of the active ingredient per 10 ares, evaluated on the 21st day after application.
Format: in vivo
Text: as §4
For `C=CCN1C(=O)COc2ccc(-c3ccc(C(F)(F)F)n(C)c3=O)cc21` [2-31], the “Herbicidal effects Am” value was 5.

What follows are compounds tested on corn (Ze) (assay: Test Example 11: crop plant selectivity by upland field foliage treatment (corn), phytotoxicity). Conditions: upland field foliage treatment, dose 1.6 g ai/10a, 14th day after treatment.
Method: (§5) (Test on Crop Plant Selectivity by Upland Field Foliage Treatment)
(§6) In a plastic pot (surface area: 600 cm^2) filled with sand, corn (Ze), pale smartweed (Po), slender amaranth (Am), common lambsquarters (Ch) and China jute (Ab) were sown and cultured in a green house for 2 weeks. […] The plants were then cultured in a green house, and the evaluation of the herbicidal effects and phytotoxicity was conducted on the 14th day after the treatment in accordance with the standards as identified in Table 47.
For `C=CCN1C(=O)COc2ccc(-c3ccc(C(F)(F)F)n(C)c3=O)cc21` [2-31], the “Phytotoxicity Ze” value was 2.

Each compound was assayed on wheat (Tr) (assay: Test Example 9: crop plant selectivity by upland field foliage treatment (wheat), phytotoxicity). Conditions: dose 1.6 g ai/10a, 14th day after treatment.
Outline: as §1
With `C=CCN1C(=O)COc2ccc(-c3ccc(C(F)(F)F)n(C)c3=O)cc21` [2-31] the “Phytotoxicity Tr” value was 2.

These compounds were tested on pale smartweed (Po) (assay: Test Example 11: crop plant selectivity by upland field foliage treatment (corn), herbicidal effects). Conditions: upland field foliage treatment (corn test), dose 1.6 g ai/10a, 14th day after treatment.
Format: in vivo
Design: scale not given here
Method: as §5, §6
With `C=CCN1C(=O)COc2ccc(-c3ccc(C(F)(F)F)n(C)c3=O)cc21` [2-31] the “Herbicidal effects Po” value was 5.

These compounds were tested on common lambsquarters (Ch) in the same assay as above. Conditions: upland field foliage treatment (corn test), dose 1.6 g ai/10a, 14th day after treatment.
Format: in vivo
Design: scale not given here
Method: as §5, §6
With `C=CCN1C(=O)COc2ccc(-c3ccc(C(F)(F)F)n(C)c3=O)cc21` [2-31] the “Herbicidal effects Ch” value was 5.

Each compound was assayed on China jute (Ab) in the same assay as above. Conditions: upland field foliage treatment (corn test), dose 1.6 g ai/10a, 14th day after treatment.
Format: in vivo
Design: scale not given here
Method: as §5, §6
For `C=CCN1C(=O)COc2ccc(-c3ccc(C(F)(F)F)n(C)c3=O)cc21` [2-31], the “Herbicidal effects Ab” value was 5.

What follows are compounds tested on slender amaranth (Am) in the same assay as above. Conditions: upland field foliage treatment (corn test), dose 1.6 g ai/10a, 14th day after treatment.
Format: in vivo
Design: scale not given here
Method: as §5, §6
With `C=CCN1C(=O)COc2ccc(-c3ccc(C(F)(F)F)n(C)c3=O)cc21` [2-31] the “Herbicidal effects Am” value was 5.
